US5409938A, “Antimalarial korupensamines and pharmaceutical compositions and medical uses thereof” (The United States of America as represented by the …, priority 1994, dated 1995)
In brackets after ≈: the same amount, converted by molar mass. Each block holds one compound with its values, some of them ahead of it.

Columns and labels:
Plasmodium falciparum = experiment: in vitro antimalarial activity, 3H-hypoxanthine incorporation, P. falciparum (strain NF 54/64, clone A1A9) in human erythrocytes; assay type: cell-based; details: averages of 6 repeat tests
Protocol: This example illustrates the antimalarial activity of the korupensamines of the present invention. […] Continuous in vitro cultures of asexual erythrocytic stages of P. falciparum (strain NF 54/64, clone A1A9) were maintained following essentially the method of Trager and Jensen (Science, 193, 673-675, 1976) at 37° C. under an atmosphere of 5% CO2, 5% O2, and 90% N2. The host cells were human erythrocytes (A or O Rh+). The culture medium was RPMI 1640 (Gibco), containing HEPES (BDH; 4.57 gL^-1) glucose (Sigma; 1.54 gL^-1), 5% NaHCO3 (Merck; 34.78 mlL^-1),and gentamycin (Merck; 8.70 mlL^-1) supplemented with 10% human plasma (A Rh+). Parasites were subinoculated every 3-4 days with initial conditions of 1% parasitemia and 1% hematocrit.
In vitro testing with P. falciparum was as follows. Each compound was dissolved in DMSO at a concentration of 20 mg ml^-1. These solutions were further diluted with physiological saline to obtain a stock solution of 500 μg ml^-1. […]
The test protocol was performed in vitro, based upon the method of Desjardins, et al. (Antimicrobial Agents Chemother., 16, 710-718, 1979). […] The filter papers were dried for 2 h at 52° C. and their radioactivity was measured by liquid scintillation counting in Optiscint HiSafe (LKB Pharmacia).
The mean results, obtained as counts per min (cpm), were expressed as percentages of incorporation or growth inhibition. […]

Plasmodium berghei = experiment: in vitro antimalarial activity, 3H-hypoxanthine incorporation, P. berghei (Anka strain); assay type: cell-based; details: averages of 6 repeat tests
[1] = Ruangrungsi, et al., 1985; cited from earlier work
[2] = Sharma, et al., 1975; cited from earlier work
[3] = Bringmann, et al., DE 41 17 080; cited from earlier work
Spodoptera littoralis = details: larvae of Spodoptera littoralis; Grimm 1992; Bringmann 1992; cited from earlier work
P. berghei (Anka strain) = experiment: in vivo antimalarial activity in P. berghei-infected OF1 mice, parasitemia from blood smears after 4 days
Protocol: Outbred, female, six-week-old OF1 mice (six mice per group treated and nontreated [control]) were inoculated intraperitoneally on day 0 with 10^6 P. berghei (Anka strain) blood forms. Two hours later, they were administered orally 50 mg/kg of korupensamine A. A second, third, and fourth treatment (50 mg/kg each) was given after 24, 48, and 72 h respectively (days 1, 2, and 3). […] The parasitemia (%) in the control (not drug treated) group was 2.45 (range 2.21-2.69; N=6) compared to 0.69 (range 0.48-0.91; N=6) for the treated group.

IC50 P. faciparum (Plasmodium falciparum; NP54/64, clone A1A9): 0.175 mg/L (≈ 0.461 µM) | IC50 P. berghei (Plasmodium berghei): 0.490 mg/L (≈ 1.29 µM)
SMILES: COc1cc(C)cc2c(-c3c(O)cc(O)c4c3C[C@@H](C)N[C@@H]4C)ccc(O)c12 [korupensamine B]

SMILES: COc1cc2c(c(OC)c1-c1c(C)cc3cccc(OC)c3c1O)[C@@H](C)N(C)[C@@H](C)C2 [ancistrotectorine]
antitumor activity [1]: antitumor activity

SMILES: COc1cc2c(c(OC)c1-c1c(C)cc3cccc(OC)c3c1O)C(C)=N[C@@H](C)C2 [ancistrocladidine]
spasmolytic activity [2]: pronounced spasmolytic activity

SMILES: COc1cc(C)cc2ccc(-c3ccc4c(c3O)[C@@H](C)N[C@H](C)C4)c(O)c12 [Dioncophylline B]
activity as fungicides [3]: active as fungicides

SMILES: COc1cccc2c(-c3ccc4c(c3O)C(C)NC(C)C4)c(C)cc(OC)c12 (centres unmarked) [dioncophylline A]
activity as fungicides [3]: active as fungicides | antifeedant effect (Spodoptera littoralis): antifeedant effect against the larvae of Spodoptera littoralis

IC50 (Plasmodium falciparum; Plasmodium falciparum, Erythrocyte, NP54/64, clone A1A9, read-out: IC50 P. faciparum): 0.307 mg/L (≈ 0.809 µM) | IC50 (Plasmodium berghei; Plasmodium berghei): 0.555 mg/L (≈ 1.46 µM)
SMILES: COc1cc(C)cc2c(-c3c(O)cc(O)c4c3C[C@@H](C)N[C@@H]4C)ccc(O)c12 [korupensamine A]
parasitemia (%) in the treated group (P. berghei (Anka strain); 50 mg/kg orally x4 (2 h after inoculation, then 24, 48, 72 h), after 4 days, N=6, control 2.45 (range 2.21-2.69; N=6)): 0.69 (range 0.48-0.91; N=6) % | inhibition of the development of P. berghei erythrocytic forms (P. berghei (Anka strain); 50 mg/kg orally x4, blood smears after 4 days): marked inhibition of the development of P. berghei erythrocytic forms
